How the values were obtained:
[1] = target: DNA polymerase beta (Rattus norvegicus) (UniProt P06766); assay: Inhibition of rat DNA polymerase beta assessed as [3H]TTP incorporation at 50 ug/mL after 60 mins by scintillation counting
[2] = target: DNA polymerase beta (Rattus norvegicus) (UniProt P06766); assay: Inhibition of rat DNA polymerase beta assessed as [3H]TTP incorporation at 10 ug/mL after 60 mins by scintillation counting
[3] = target: DNA polymerase beta (Rattus norvegicus, UniProt P06766); assay: Inhibition of rat DNA polymerase beta assessed as [3H]TTP incorporation after 60 mins by scintillation counting in presence of bovine serum albumin

| inhibition [1] [%] | inhibition [2] [%] | IC50 [3] [µM] | Compound |
| --- | --- | --- | --- |
| 92 | 44 | 6.5 | Oc1cc(O)cc(CCCCCC/C=C\CCCCCCc2cc(O)cc(O)c2)c1 |
| 79 | 50 | 5.8 | Oc1cc(O)cc(CCCCCCCCCCCCCCc2cc(O)cc(O)c2)c1 [BISNORSTRIATOL] |
| 98 | 51 | 7.5 | Oc1cc(O)cc(CCC/C=C\CCCCCCCCCc2cc(O)cc(O)c2)c1 |

From ChEMBL document CHEMBL1141812, “bis-5-Alkylresorcinols from Panopsis rubescens that inhibit DNA polymerase beta” (J Nat Prod, 1999)
